{
  "source": "patent US20050256064A1",
  "about": "“9-Desoxoerythromycin compounds as prokinetic agents” (priority 2003, published 2005)",
  "key": {"S. pneumoniae": {"system": "S. pneumoniae", "assay": "Antibacterial activity, MIC by serial dilutions on 96-well microtiter plates", "assay_type": "cell-based", "conditions": "for MIC: Streptococcus pneumoniae"}, "hERG potassium channel": {"molecular_target": "hERG potassium channel (Homo sapiens, UniProt Q12809)", "sequence (Q12809 whole entry)": "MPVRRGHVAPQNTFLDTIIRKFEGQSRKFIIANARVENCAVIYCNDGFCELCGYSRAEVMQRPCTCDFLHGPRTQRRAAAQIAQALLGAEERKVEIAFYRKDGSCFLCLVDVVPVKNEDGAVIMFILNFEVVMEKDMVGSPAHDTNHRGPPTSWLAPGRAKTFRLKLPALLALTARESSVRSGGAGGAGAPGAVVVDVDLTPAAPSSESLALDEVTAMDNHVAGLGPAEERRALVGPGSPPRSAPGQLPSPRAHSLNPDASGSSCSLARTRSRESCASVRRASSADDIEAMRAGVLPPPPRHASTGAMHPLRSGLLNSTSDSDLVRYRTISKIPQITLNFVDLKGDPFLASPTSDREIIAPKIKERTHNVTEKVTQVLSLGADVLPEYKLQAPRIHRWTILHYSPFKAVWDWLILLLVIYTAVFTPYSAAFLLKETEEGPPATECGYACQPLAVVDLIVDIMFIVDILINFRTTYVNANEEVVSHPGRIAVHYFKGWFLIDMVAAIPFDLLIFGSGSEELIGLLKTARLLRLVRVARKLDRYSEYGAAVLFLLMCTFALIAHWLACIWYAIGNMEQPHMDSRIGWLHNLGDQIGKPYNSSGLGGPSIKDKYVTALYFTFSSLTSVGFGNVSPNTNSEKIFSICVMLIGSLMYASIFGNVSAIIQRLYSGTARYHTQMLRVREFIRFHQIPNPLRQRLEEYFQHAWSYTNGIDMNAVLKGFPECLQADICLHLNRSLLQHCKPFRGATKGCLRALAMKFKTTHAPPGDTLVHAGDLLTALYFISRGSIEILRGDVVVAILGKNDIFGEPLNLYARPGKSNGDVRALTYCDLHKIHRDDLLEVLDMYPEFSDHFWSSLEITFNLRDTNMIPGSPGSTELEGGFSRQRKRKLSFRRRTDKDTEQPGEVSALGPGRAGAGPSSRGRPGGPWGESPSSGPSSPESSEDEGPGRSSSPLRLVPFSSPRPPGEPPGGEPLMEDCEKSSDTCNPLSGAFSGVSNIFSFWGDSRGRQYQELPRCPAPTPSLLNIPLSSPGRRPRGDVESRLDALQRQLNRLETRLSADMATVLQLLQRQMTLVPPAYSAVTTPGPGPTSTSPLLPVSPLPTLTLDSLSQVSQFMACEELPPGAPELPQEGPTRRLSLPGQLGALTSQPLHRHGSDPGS", "assay": "in vitro", "conditions": "human", "source_text": "(§1) Stanat et al., Mol. Cellular Biochem., 254, 1-7 (2003), “Characterization of the Inhibitory Effects of Erythromycin and Clarithromycin on the HERG Potassium Channel”."}, "human motilin receptor [1]": {"molecular_target": "T1, human motilin receptor (Homo sapiens, UniProt O43193)", "T1 construct": "expressed in transfected cells; host or cells: HEK293", "T1 sequence (O43193 whole entry)": "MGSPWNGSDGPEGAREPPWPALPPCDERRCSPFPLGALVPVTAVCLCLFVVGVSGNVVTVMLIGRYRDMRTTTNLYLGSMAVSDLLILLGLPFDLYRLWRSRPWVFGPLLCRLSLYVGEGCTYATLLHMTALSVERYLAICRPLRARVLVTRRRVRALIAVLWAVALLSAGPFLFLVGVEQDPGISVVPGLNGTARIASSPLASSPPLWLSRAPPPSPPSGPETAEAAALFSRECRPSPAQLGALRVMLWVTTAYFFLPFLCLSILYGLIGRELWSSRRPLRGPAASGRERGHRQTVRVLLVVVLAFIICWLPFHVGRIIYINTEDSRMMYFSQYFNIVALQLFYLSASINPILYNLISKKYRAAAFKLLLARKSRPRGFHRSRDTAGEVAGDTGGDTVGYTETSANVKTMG", "conditions": "HEK293 cells expressing human motilin receptor; as reported in Anal. Biochemistry; read-out: Motilin Agonist EC50; cited from earlier work"}, "rabbit duodenum strips": {"system": "rabbit duodenum strips", "assay": "Chronic dosing tachyphylaxis model", "conditions": "for % of the initial contraction after the fourth dose: dosed at EC90 at 0, 30, 60 and 90 min, response at 0 min set as 100%", "procedure": "Rabbit duodenum strips were qualified as described above and dosed with test compound at its EC90 concentration. The contraction was recorded. When peak contractile force was reached, carbachol (1 μM) was added, and any further contraction was recorded. The resulting contraction is expressed as a fraction of the 1 μM carbachol contraction. The test compound and carbachol were washed away by changing the bath solution twice. The procedure was repeated at 30, 60, and 90 min following the initial dosing."}, "[2]": {"molecular_target": "hERG (human ether-a-go-go related gene) potassium channel (Homo sapiens, UniProt Q12809)", "sequence (Q12809 whole entry)": "as the sequence (Q12809 whole entry) above", "assay": "in vitro", "source_text": "as §1"}, "human motilin receptor [3]": {"molecular_target": "T1, human motilin receptor", "assay": "Motilin agonist potency (cell based assay)", "conditions": "HEK293 cells expressing human motilin receptor", "procedure": "The motilin agonist potency of compound I-b was evaluated in a cell based assay, according to the procedure disclosed in Carreras et al., Anal. Biochemistry, 300, 146-151 (2002), the disclosure of which is incorporated herein by reference. Briefly, in this method HEK293 cells are transformed with a synthetic gene for the human motilin receptor. Expression of the synthetic gene produces the human motilin receptor; then the activation of the receptor by the binding of a test compound thereto is measured."}, "rabbit duodenum tissue": {"system": "rabbit duodenum tissue", "assay": "Motilin agonist potency (tissue based assay), rabbit duodenum contractility", "conditions": "Oryctolagus cuniculus, rabbit duodenum contraction", "procedure": "The motilin agonist potency of compound I-b also was evaluated using a tissue based assay, using rabbit duodenum tissue-based contractility assay, generally following the procedure of Depoortere et al., J. Gastrointestinal Motility, 1, 150-159 (1989), the disclosure of which is incorporated herein by reference. Briefly, this method measures the ability of a compound to induce contractions in rabbit duodenal tissue, a tissue that responds to motilin.\nStrips of rabbit duodenum were tested and qualified for use in the assay by as follows. Segments of rabbit duodenum, 20-30 cm distal to the pylorus were split longitudinally. The mucosa was removed and 2×2×15 mm strips of longitudinal smooth muscle were sliced from the segments. The strips were bathed in oxygenated Krebs solution at 37° C., with 1.5 g of tension, and contractions measured auxotonically. […] Qualified strips were mounted on the test apparatus.\nCompound I-b was dissolved in dimethylsulfoxide (DMSO) to a final concentration of 10 mM. […]\nThe EC50 (concentration producing a half-maximal effect) was calculated as follows. The basal tension was subtracted from the compound-induced tension for each reading. […] Both R and Rmax are expressed as a fraction of the 1 μM carbachol contraction and range from 0 to 1. […]"}, "cytochrome P450 3A4": {"molecular_target": "cytochrome P450 3A4 (Homo sapiens, UniProt P08684)", "sequence (P08684 whole entry)": "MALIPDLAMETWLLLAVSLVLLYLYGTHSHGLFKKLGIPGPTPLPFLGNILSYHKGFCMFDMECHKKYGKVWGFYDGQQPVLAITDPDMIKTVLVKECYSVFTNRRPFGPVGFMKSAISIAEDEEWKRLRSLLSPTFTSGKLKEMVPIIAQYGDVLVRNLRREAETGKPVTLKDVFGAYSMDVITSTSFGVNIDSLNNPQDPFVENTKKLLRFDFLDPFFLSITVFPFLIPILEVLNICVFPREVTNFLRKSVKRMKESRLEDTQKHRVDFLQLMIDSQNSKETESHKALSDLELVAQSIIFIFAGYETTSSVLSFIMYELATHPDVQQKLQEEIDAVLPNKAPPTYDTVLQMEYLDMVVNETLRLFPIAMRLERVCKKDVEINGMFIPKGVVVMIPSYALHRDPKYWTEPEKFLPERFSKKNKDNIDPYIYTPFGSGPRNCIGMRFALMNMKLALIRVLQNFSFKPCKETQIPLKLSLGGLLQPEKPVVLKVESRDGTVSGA", "assay": "Cytochrome P450 inhibition", "assay_type": "in vitro ADME", "procedure": "The inhibitory effect of compound I-b on cytochrome P450 3A4, the most abundant of the cytrochrome P450 enzymes responsible for the metabolism of many drugs, was determined, using a method based on Stresser et al., Drug Metabolism Disposition, 30 (7), 845-52. A strong inhibitory effect is undesirable, as indicative of a high probability of interference with other drugs."}},
  "note": "Read-outs that look alike come from different tables or passages of the source.",
  "data": [
    {"molecule": "CC[C@H]1OC(=O)[C@H](C)[C@@H](O[C@H]2C[C@@](C)(OC)[C@@H](O)[C@H](C)O2)[C@H](C)[C@@H](O[C@@H]2O[C@H](C)C[C@H](N(C)C)[C@H]2O)[C@](C)(O)C[C@@H](C)C(=O)[C@H](C)[C@@H](O)[C@]1(C)O", "note": "[Erythromycin A, reference compound]", "values": [
      {"measurement": "MIC", "setting": "S. pneumoniae; ATCC6301, read-out: Minimum Inhibitory Concentration (MIC)", "result": 0.025, "unit": "µg/mL"},
      {"measurement": "MIC", "setting": "S. pneumoniae; ATCC49619, read-out: Minimum Inhibitory Concentration (MIC)", "result": 0.049, "unit": "µg/mL"},
      {"measurement": "MIC", "setting": "S. pneumoniae; ATCC700671, read-out: Minimum Inhibitory Concentration (MIC)", "result": 0.049, "unit": "µg/mL"}
    ]},
    {"molecule": "CCC(C)N(C)[C@H]1C[C@@H](C)O[C@@H](O[C@@H]2[C@@H](C)[C@H](O[C@H]3C[C@@](C)(OC)[C@@H](O)[C@H](C)O3)[C@@H](C)C(=O)O[C@H](CC)[C@@](C)(O)[C@H](O)[C@@H](C)C[C@H](C)CC2(C)O)[C@@H]1O", "note": "(some centres unmarked) [Compound I-c, N-Desmethyl-N-sec-butyl-9-desoxoerythromycin A]", "values": [
      {"measurement": "inhibition at 10 µM", "setting": "hERG potassium channel", "result": 26.5, "unit": "%"},
      {"measurement": "inhibition at 30 µM", "setting": "hERG potassium channel", "result": 70.3, "unit": "%"}
    ]},
    {"molecule": "CC[C@H]1OC(=O)[C@H](C)[C@@H](OC2C[C@@](C)(OC)C[C@H](C)O2)[C@H](C)[C@@H](OC2O[C@H](C)C[C@H](N(C)CC)[C@H]2O)[C@@]2(C)CC(C)=C(O2)[C@H](C)[C@@H](O)[C@H]1C", "note": "(some centres unmarked) [ABT 229]", "values": [
      {"measurement": "EC50", "setting": "human motilin receptor [1]", "result": 40, "unit": "nM"}
    ]},
    {"molecule": "CCC1OC(=O)C(C)C(OC2CC(C)(OC)C(O)C(C)O2)C(C)C(OC2OC(C)CC(N(C)CCO)C2O)C(C)(O)CC(C)CC(C)C(O)C1(C)O", "note": "(centres unmarked) [Compound I-e, N-Desmethyl-N-(2-hydroxyethyl)-9-desoxoerythromycin A]", "values": [
      {"measurement": "% of the initial contraction after the fourth dose", "setting": "rabbit duodenum strips", "result": "85±11", "unit": "%"},
      {"measurement": "Inhibition (%) at Specified Compound Concentration", "setting": "[2]; 10 µM", "result": 57.1, "unit": "%"},
      {"measurement": "Inhibition (%) at Specified Compound Concentration", "setting": "[2]; 30 µM", "result": 84.3, "unit": "%"}
    ]},
    {"molecule": "CC[C@H]1OC(=O)[C@H](C)[C@@H](O[C@H]2C[C@@](C)(OC)[C@@H](O)[C@H](C)O2)[C@H](C)[C@@H](O[C@@H]2O[C@H](C)C[C@H](N(C)CC(C)C)[C@H]2O)C(C)(O)C[C@@H](C)C[C@H](C)[C@@H](O)[C@]1(C)O", "note": "(some centres unmarked) [Compound I-d, N-Desmethyl-N-isobutyl-9-desoxoerythromycin A]", "values": [
      {"measurement": "inhibition at 10 µM", "setting": "hERG potassium channel", "result": 33.1, "unit": "%"},
      {"measurement": "inhibition at 30 µM", "setting": "hERG potassium channel", "result": 71.4, "unit": "%"}
    ]},
    {"molecule": "CC[C@H]1OC(=O)[C@H](C)[C@@H](O[C@H]2C[C@@](C)(OC)[C@@H](O)[C@H](C)O2)[C@H](C)[C@@H](O[C@@H]2O[C@H](C)C[C@H](N(C)C(C)C)[C@H]2O)C(C)(O)C[C@@H](C)C[C@H](C)[C@@H](O)[C@]1(C)O", "note": "(some centres unmarked) [Compound I-b, N-Desmethyl-N-isopropyl-9-desoxoerythromycin A]", "values": [
      {"measurement": "EC50", "setting": "human motilin receptor [3]", "result": 1200, "unit": "nM"},
      {"measurement": "EC50", "setting": "rabbit duodenum tissue; normalized to 1 μM carbachol, read-out: EC50 (concentration producing a half-maximal effect)", "result": 180, "unit": "nM"},
      {"measurement": "EC90", "setting": "rabbit duodenum tissue; approximated as ten times EC50 and verified, read-out: EC90 (concentration producing 90% of the maximal effect)", "result": 1800, "unit": "nM"},
      {"measurement": "MIC", "setting": "S. pneumoniae; ATCC6301, S. pneumoniae strain ATCC 6301, read-out: Minimum Inhibitory Concentration (MIC)", "result": 50, "unit": "µg/mL"},
      {"measurement": "MIC", "setting": "S. pneumoniae; ATCC49619, S. pneumoniae strain ATCC 49619, read-out: Minimum Inhibitory Concentration (MIC)", "result": 50, "unit": "µg/mL"},
      {"measurement": "MIC", "setting": "S. pneumoniae; ATCC700671, S. pneumoniae strain ATCC 700671, read-out: Minimum Inhibitory Concentration (MIC)", "result": "> 200", "unit": "µg/mL"},
      {"measurement": "antibacterial activity", "setting": "S. pneumoniae; erythromycin A sensitive strains of S. pneumoniae, in words", "result": "low antibacterial activity"},
      {"measurement": "Ki", "setting": "cytochrome P450 3A4", "result": 9900, "unit": "nM"},
      {"measurement": "tachyphylaxis effect (FIG. 1)", "setting": "rabbit duodenum strips; contractile responses at 0, 30, 60, 90 min, in words", "result": "distinctly less pronounced than that of ABT 229"},
      {"measurement": "% of the initial contraction after the fourth dose", "setting": "rabbit duodenum strips", "result": "39±13", "unit": "%"},
      {"measurement": "inhibition at 10 µM", "setting": "hERG potassium channel", "result": 74, "unit": "%"},
      {"measurement": "inhibition at 30 µM", "setting": "hERG potassium channel", "result": 95, "unit": "%"}
    ]}
  ]
}
